{"source": "patent US9060985B2", "about": "“Use of rosmarinic acid and the derivatives thereof to treat ciguatera” (priority 2009, dated 2015)", "key": {"ciguatoxins": {"system": "ciguatoxins", "details": "cited from earlier work"}, "symptoms of ciguatera": {"system": "symptoms of ciguatera", "details": "cited from earlier work"}, "[1]": {"system": "neuroblastoma cell cultures", "test": "Inhibition of the cytotoxicity caused by extracts of toxic loach or toxic giant clams on neuroblastoma cell cultures (MTT, with ouabain/veratridine)", "type": "cell-based", "method": "The sample of salmon-pink loach (Ref15), supplied by the Louis Malardé Institute, was collected at Mururoa (Tuamotu Archipelago, French Polynesia). The sample of giant clam (GPS59) was collected at Raivavae (Austral Islands, French Polynesia). The toxicity of these two samples was confirmed beforehand on mice, by a cytotoxicity assay on neuroblastomas and radioligand assays with P-CTX-3.\nThe samples are stored at 4° C. The rosmarinic acid was obtained from Sigma.\n96-well plates are prepared with 50 000 cells in 100 μL of medium per well. The outer wells are not used, to avoid variations of response due to edge effects. The cells are incubated for 24 h at 37° C. with 5% CO2 to give them time to adhere.\nA mixture of ouabain (cardiac glycoside involved in cellular permeability, inhibiting the Na/K pump) and veratridine (polycyclic alkaloid which leads to persistent activation of the sodium channels), designated O/V hereinafter, in which the two active substances are present respectively at a final concentration of 0.33 and 0.033 mM in 20 μl, is added to the wells.\nOuabain is an inhibitor of ATPase Na^+/K^+, and veratridine is an activator of the sodium channels. The combined action of these two products induces a raised intracellular level of sodium and causes a change in the morphology of the cells, which greatly reduces their viability. […]\nAll the plates have a standard control of culture medium (cells only) and a control with cells in the presence of the O/V mixture. Rosmarinic acid is tested alone with the O/V mixture to record effects of cytotoxicity or of cellular proliferation as well as any interferences of coloration due to strong concentrations of products, which can lead to false positives in spectrophotometer readings. […]\nAfter incubation for 1.5 h, the formazan crystals that formed are dissolved with 150 μL of DMSO (dimethylsulfoxide) for each well. After homogenization, the plates are read with a UV plate reader at 490 nm. Then the data are transferred and processed using Excel® and analyzed with the GraphPad Prism® software (version 4)."}, "[2]": {"system": "voltage-dependent sodium channels", "type": "binding, rat"}, "mouse": {"system": "mouse", "details": "cited from earlier work"}}, "data": [{"smiles": "C=C/C=C\\CC[C@H]1O[C@H]2CC[C@@]3(C)O[C@H]4[C@@H](O)C[C@@]5(C)O[C@@H](CC/C=C(C)/C(C)=C/C=O)[C@@H](C)C[C@@H]5O[C@@H]4C[C@@H]3O[C@@H]2CC[C@@]1(C)O", "note": "[brevenal]", "values": [{"measurement": "inhibition of neurotoxic effects induced by the ciguatoxins", "setting": "ciguatoxins", "value": "powerful inhibitor"}]}, {"smiles": "OC[C@@H](O)[C@@H](O)[C@H](O)[C@H](O)CO", "note": "[mannitol, Mannitol]", "values": [{"measurement": "effect on neurological and muscular disorders", "setting": "symptoms of ciguatera; administered 48 to 72 hours after intoxication", "value": "capable of alleviating neurological and muscular disorders"}, {"measurement": "effect on the symptoms of ciguatera", "setting": "symptoms of ciguatera; blind clinical trials, mannitol and a saline solution, after 24 hours", "value": "did not, however, show a beneficial effect"}]}, {"smiles": "O=C(/C=C/c1ccc(O)c(O)c1)O[C@H](Cc1ccc(O)c(O)c1)C(=O)O", "note": "[rosmarinic acid, (R)-a-[[3-(3,4-dihydroxyphenyl)-1-oxo-2E-propenyl]oxy]-3,4-dihydroxybenzenepropanoic acid]", "values": [{"measurement": "IC50", "setting": "[1]; Neuroblastoma cell, neuroblastomas, toxic extracts, estimated, read-out: IC50 (concentration for 50% decrease in cellular mortality caused by ciguatoxins and associated toxins)", "value": "500 to 1000", "unit": "µg/mL"}, {"measurement": "concentration from which cellular viability is significantly increased", "setting": "[1]; toxic giant clam extract GPS59 at 100 μg/ml, O/V mixture", "value": "≥ 50", "unit": "µg/mL"}, {"measurement": "effect on cellular viability of neuroblastomas (cytotoxicity of toxic giant clam extract)", "setting": "[1]; toxic giant clam extract GPS59 at 100 μg/ml, O/V mixture, rosmarinic acid 10 to 1000 μg/ml, 18 h, MTT", "value": "protective effect"}, {"measurement": "IC50 (50% inhibition of interaction with [^3H]PbTx-3)", "setting": "[2]", "value": 880, "unit": "µg/mL"}, {"measurement": "Ki", "setting": "[2]", "value": 1430, "unit": "µM"}, {"measurement": "measured radioactivity (replacement of tritiated brevetoxin on the sodium channels)", "setting": "[2]", "value": "decrease in the measured radioactivity"}, {"measurement": "toxicity", "setting": "mouse; at 531 mg/kg i.v. in the mouse", "value": "does not display toxicity"}, {"measurement": "LD50", "setting": "mouse; intravenously (i.v.) in the mouse", "value": 531, "unit": "mg/kg"}]}]}
